Patent publication US20100168451A1, “PREPARATIVE METHOD OF DIHYDROCUCURBITACIN F-25-O-ACETATE AND THE USE THEREOF IN THE MANUFACTURE OF MEDICAMENTS FOR TREATING CANCERS” (priority 2007, published 2010)
≈ marks a conversion by molar mass, not a printed value. Like-named read-outs stand apart in the source and are kept apart here.

Assays:
[1] = system: HL60 human leukemia cell strain; assay: modified MTT in vitro screening, HL60; format: cell-based
From the text: (§1) 1. Screening research in vitro, employing modified MTT of anticancer substance activity. Cancer Cell Strain: [table]

[2] = system: A549 human lung cancer cell strain; assay: modified MTT in vitro screening, A549; format: cell-based; conditions: for IC50: A549
From the text: as §1

[3] = system: SGC-7901 human gastric cancer cell strain; assay: modified MTT in vitro screening, SGC-7901; format: cell-based
From the text: as §1

[4] = system: Bel-7402 human hepatic cancer cell strain; assay: modified MTT in vitro screening, Bel-7402; format: cell-based
From the text: as §1

[5] = system: SMMC-7721 human hepatic cancer cell strain; assay: modified MTT in vitro screening, SMMC-7721; format: cell-based
From the text: as §1

[6] = system: HEP-2 human laryngeal cancer cell strain; assay: modified MTT in vitro screening, HEP-2; format: cell-based
From the text: as §1

[7] = system: GLC-15 human lung cancer cell strain; assay: modified MTT in vitro screening, GLC-15; format: cell-based
From the text: as §1

[8] = system: PC-3 human prostate cancer cell strain; assay: modified MTT in vitro screening, PC-3; format: cell-based
From the text: as §1

mouse H22 liver cancer = assay: curative effect on mouse H22 liver cancer in vivo
Method: (§2) After inoculating Kunming murine for H22 hepatic cancer and murine Lewis lung cancer, three kinds of preparation, i.e., suspension, emulsion, and lyophilized preparation, are administrated in three different ways of administration comprising gastric perfusion, intraperitoneal injection and intravenous injection, and the administration dose is high, middle and low respectively. Then the curative effect is compared with positive control group and the tumour inhibition efficiency is calculated, and the results are shown as follows: […]

mouse Lewis lung cancer = assay: curative effect on mouse Lewis lung cancer in vivo
Method: as §2

[9] = mouse, in vivo
Method: as §2

[10] = animal body weight, Lewis lung cancer mice; format: in vivo, mouse
From the text: After inoculating Kunming murine for H22 hepatic cancer and murine Lewis lung cancer, three kinds of preparation, i.e., suspension, emulsion, and lyophilized preparation, are administrated in three different ways of administration comprising gastric perfusion, intraperitoneal injection and intravenous injection, and the administration dose is high, middle and low respectively.

[11] = Homo sapiens, read-out: Ic 50 for the growth of tumour cells
[12] = emulsion, intravenous, 5 mg/kg/d ivx10qd
[13] = emulsion, intravenous, 10 mg/kg/d ivx10qd
[14] = emulsion, intravenous, 15 mg/kg/d ivx10qd
[15] = lyophilized preparation, intravenous, 5 mg/kg/d ivx10qd
[16] = lyophilized preparation, intravenous, 10 mg/kg/d ivx10qd
[17] = lyophilized preparation, intravenous, 15 mg/kg/d ivx10qd
[18] = suspension, gastric perfusion, 30 mg/kg/d igx10qd
[19] = suspension, gastric perfusion, 60 mg/kg/d igx10qd
[20] = suspension, gastric perfusion, 90 mg/kg/d igx10qd
[21] = suspension, intraperitoneal administration (igx10qd), 30 mg/kg/d
[22] = suspension, intraperitoneal administration (igx10qd), 60 mg/kg/d
[23] = suspension, intraperitoneal administration (igx10qd), 90 mg/kg/d
[24] = mouse, in vivo, iv, 5 mg/kg/day
[25] = mouse, in vivo, iv, 10 mg/kg/day
[26] = mouse, in vivo, iv, 15 mg/kg/day
[27] = Table VI, 7 mg/kg/d Ipx2, the first, third days

## CC(=O)OC(C)(C)CCC(=O)[C@](C)(O)[C@H]1[C@H](O)C[C@@]2(C)[C@@H]3CC=C4[C@@H](C[C@H](O)[C@@H](O)C4(C)C)[C@]3(C)C(=O)C[C@]12C [Curcurbitacin IIa, dihydrocucurbitacin F-25-O-acetate]
[1]; Homo sapiens, HL-60, read-out: Ic 50 for the growth of tumour cells
  IC50: 43.2 µg/mL (≈ 76.8 µM)
[2]; human lung cancer cells, read-out: Ic 50 for growth of the human lung cancer cells
  IC50: 1.5 µg/mL (≈ 2.67 µM)
[2]; [11]
  IC50: 1.5 µg/mL (≈ 2.67 µM)
[3]; [11]
  IC50: 8.71 µg/mL (≈ 15.5 µM)
[4]; [11]
  IC50: > 100 µg/mL
[5]; [11]
  IC50: 22.3 µg/mL (≈ 39.6 µM)
[6]; Homo sapiens, HEp-2, read-out: Ic 50 for the growth of tumour cells
  IC50: 15.8 µg/mL (≈ 28.1 µM)
[7]; [11]
  IC50: 14.6 µg/mL (≈ 25.9 µM)
[8]; [11]
  IC50: 10.1 µg/mL (≈ 17.9 µM)
Mouse H22 liver cancer; [12]
  Inhibition efficiency: 32.38
  Tumour weight (g) X ± SD: 2.13 ± 0.20 g
Mouse H22 liver cancer; [13]
  Inhibition efficiency: 44.12
  Tumour weight (g) X ± SD: 1.76 ± 0.08 g
Mouse H22 liver cancer; [14]
  Inhibition efficiency: 55.02
  Tumour weight (g) X ± SD: 1.48 ± 0.11 g
Mouse H22 liver cancer; [15]
  Inhibition efficiency: 31.1
  Tumour weight (g) X ± SD: 2.06 ± 0.18 g
Mouse H22 liver cancer; [16]
  Inhibition efficiency: 39.13
  Tumour weight (g) X ± SD: 1.82 ± 0.19 g
Mouse H22 liver cancer; [17]
  Inhibition efficiency: 46.15
  Tumour weight (g) X ± SD: 1.61 ± 0.18 g
Mouse H22 liver cancer; [18]
  Inhibition efficiency: 27.13
  Tumour weight (g) X ± SD: 2.31 ± 0.21 g
Mouse H22 liver cancer; [19]
  Inhibition efficiency: 32.09
  Tumour weight (g) X ± SD: 2.14 ± 0.20 g
Mouse H22 liver cancer; [20]
  Inhibition efficiency: 38.17
  Tumour weight (g) X ± SD: 1.96 ± 0.16 g
Mouse H22 liver cancer; [21]
  Inhibition efficiency: 36.07
  Tumour weight (g) X ± SD: 1.95 ± 0.12 g
Mouse H22 liver cancer; [22]
  Inhibition efficiency: 51.05
  Tumour weight (g) X ± SD: 1.49 ± 0.12 g
Mouse H22 liver cancer; [23]
  Inhibition efficiency: 57.05
  Tumour weight (g) X ± SD: 1.31 ± 0.12 g
Mouse Lewis lung cancer; [12]
  Inhibition efficiency: 40.76
  Tumour weight (g) X ± SD: 1.69 ± 0.11 g
Mouse Lewis lung cancer; [13]
  Inhibition efficiency: 47.37
  Tumour weight (g) X ± SD: 1.50 ± 0.14 g
Mouse Lewis lung cancer; [14]
  Inhibition efficiency: 59.30
  Tumour weight (g) X ± SD: 1.16 ± 0.16 g
Mouse Lewis lung cancer; lyophilized preparation, 5 mg/kg/d ivx10qd
  Tumour weight (g) X ± SD: 1.56 ± 0.14 g
Mouse Lewis lung cancer; lyophilized preparation, 10 mg/kg/d ivx10qd
  Tumour weight (g) X ± SD: 1.34 ± 0.18 g
Mouse Lewis lung cancer; lyophilized preparation, 15 mg/kg/d ivx10qd
  Tumour weight (g) X ± SD: 1.20 ± 0.20 g
Mouse Lewis lung cancer; lyophilized preparation, hypodermic inoculation, 5 mg/kg/d ivx10qd
  Inhibition efficiency: 36.33
Mouse Lewis lung cancer; lyophilized preparation, hypodermic inoculation, 10 mg/kg/d ivx10qd
  Inhibition efficiency: 45.31
Mouse Lewis lung cancer; lyophilized preparation, hypodermic inoculation, 15 mg/kg/d ivx10qd
  Inhibition efficiency: 51.20
[9]; 30 mg/kg/day
  Animal body weight (g) Start: 19.0 g
  Animal body weight (g) end: 26.0 g
[9]; 60 mg/kg/day
  Animal body weight (g) Start: 19.3 g
  Animal body weight (g) end: 26.3 g
[9]; 90 mg/kg/day
  Animal body weight (g) Start: 19.1 g
  Animal body weight (g) end: 25.7 g
[9]; iv, 10 mg/kg/day
  Animal body weight (g) end: 25.9 g
[10]; mouse, in vivo, 5 mg/kg/day
  Animal body weight (g) Start: 18.1 g
  Animal body weight (g) end: 20.5 g
[10]; mouse, in vivo, 10 mg/kg/day
  Animal body weight (g) Start: 17.7 g
  Animal body weight (g) end: 21.1 g
[10]; mouse, in vivo, 15 mg/kg/day
  Animal body weight (g) Start: 18.0 g
  Animal body weight (g) end: 20.7 g
[10]; [24]
  Animal body weight (g) Start: 19.3 g
  Animal body weight (g) end: 22.4 g
[10]; [25]
  Animal body weight (g) Start: 19.1 g
  Animal body weight (g) end: 22.9 g
[10]; [26]
  Animal body weight (g) Start: 19.5 g
  Animal body weight (g) end: 22.1 g

## N.N.[Cl][Pt][Cl] [DDP(Cisplatin), Cisplatin, reference compound]
[1]
  Ic 50 for the growth of tumour cells: 0.695 µg/mL
[2]; human lung cancer cells
  Ic 50 for growth of the human lung cancer cells: 1.6 µg/mL
[3]
  Ic 50 for the growth of tumour cells: 0.89 µg/mL
[4]
  Ic 50 for the growth of tumour cells: 2.31 µg/mL
[5]
  Ic 50 for the growth of tumour cells: 0.21 µg/mL
[6]; HEP-2
  Ic 50 for the growth of tumour cells: 0.3 µg/mL
[7]
  Ic 50 for the growth of tumour cells: 1.72 µg/mL
[8]
  Ic 50 for the growth of tumour cells: 1.85 µg/mL
Mouse Lewis lung cancer; [27]
  Inhibition efficiency: 92.98
  Tumour weight (g) X ± SD: 0.172 ± 0.06 g
[10]; Table VI, 7 mg/kg/d Ipx2, the first, third days, end
  Animal body weight (g) end: 18.1 g
[10]; Table VI, 7 mg/kg/d Ipx2, the first, third days, start
  Animal body weight (g) Start: 18.4 g
